Reference: ChEMBL document CHEMBL4257534, “Curcumin-based pyrazoline analogues as selective inhibitors of human monoamine oxidase A” (Medchemcomm, 2018)

Experiments:
[1] = target: T1, Amine oxidase [flavin-containing] A (Homo sapiens, UniProt P21397); experiment: Inhibition of recombinant human MAO-A assessed as reduction in H2O2 production preincubated for 30 mins followed by p-tyramine substrate addition measured after 30 mins by amplex red reagent based fluorescence assay
T1 sequence (P21397 whole entry): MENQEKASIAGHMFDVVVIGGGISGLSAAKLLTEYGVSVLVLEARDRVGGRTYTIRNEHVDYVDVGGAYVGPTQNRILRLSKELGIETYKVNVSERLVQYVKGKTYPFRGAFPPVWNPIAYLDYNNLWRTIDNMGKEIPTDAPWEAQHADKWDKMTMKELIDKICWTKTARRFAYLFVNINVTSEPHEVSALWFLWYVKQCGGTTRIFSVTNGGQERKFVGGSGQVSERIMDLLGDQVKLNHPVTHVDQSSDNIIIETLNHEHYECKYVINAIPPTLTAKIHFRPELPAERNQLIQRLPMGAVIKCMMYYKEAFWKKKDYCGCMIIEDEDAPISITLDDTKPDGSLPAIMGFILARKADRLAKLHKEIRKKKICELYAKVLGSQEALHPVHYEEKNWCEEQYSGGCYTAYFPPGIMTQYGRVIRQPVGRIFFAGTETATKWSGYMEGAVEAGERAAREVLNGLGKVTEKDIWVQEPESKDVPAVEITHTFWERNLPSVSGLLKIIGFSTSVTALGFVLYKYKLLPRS

[2] = target: T1, Amine oxidase [flavin-containing] A; experiment: Competitive inhibition of recombinant human MAO-A assessed as reduction in H2O2 production preincubated for 30 mins followed by p-tyramine substrate addition measured after 30 mins by Lineweaver-Burk plot analysis; details: 0.5 h
[3] = target: T1, Amine oxidase [flavin-containing] A; experiment: Reversible inhibition of recombinant human MAO-A assessed as enzyme activity recovery at 5 time Ki value preincubated for 15 mins followed by dilution of enzyme-inhibitor mixture for 24 hrs and subsequent p-tyramine substrate addition by dialysis method
in vitro = details: PAMPA
Description: Permeability of the compound at 50 ug/ml after 16 hrs by PAMPA

[4] = target: T2, Amine oxidase [flavin-containing] B (Homo sapiens, UniProt P27338)
T2 sequence (P27338 whole entry): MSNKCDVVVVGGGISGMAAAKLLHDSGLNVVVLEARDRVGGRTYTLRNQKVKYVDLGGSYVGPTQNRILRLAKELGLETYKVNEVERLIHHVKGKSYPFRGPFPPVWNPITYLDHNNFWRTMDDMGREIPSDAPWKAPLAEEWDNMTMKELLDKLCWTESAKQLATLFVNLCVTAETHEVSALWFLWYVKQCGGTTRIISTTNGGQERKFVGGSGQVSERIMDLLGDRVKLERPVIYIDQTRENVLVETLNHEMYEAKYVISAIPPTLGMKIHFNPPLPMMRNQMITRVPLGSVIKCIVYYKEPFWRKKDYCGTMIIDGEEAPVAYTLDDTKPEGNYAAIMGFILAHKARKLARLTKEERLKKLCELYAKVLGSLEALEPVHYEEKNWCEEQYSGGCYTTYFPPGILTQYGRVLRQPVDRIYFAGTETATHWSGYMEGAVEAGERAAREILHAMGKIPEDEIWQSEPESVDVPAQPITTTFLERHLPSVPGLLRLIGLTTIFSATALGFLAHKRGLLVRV
Description: Inhibition of recombinant human MAO-B assessed as reduction in H2O2 production preincubated for 30 mins followed by p-tyramine substrate addition measured after 30 mins by amplex red reagent based fluorescence assay

Homo sapiens = species: Homo sapiens; experiment: Selectivity index, ratio of Ki for recombinant human MAO-B to Ki for recombinant human MAO-A
[5] = Cytotoxicity against human HepG2 cells assessed as cell viability at 1 uM after 24 hrs by MTT assay relative to control; type: cell-based; details: read-out: Activity
[6] = Cytotoxicity against human HepG2 cells assessed as cell viability at 5 uM after 24 hrs by MTT assay relative to control; type: cell-based; details: read-out: Activity
[7] = Cytotoxicity against human HepG2 cells assessed as cell viability at 25 uM after 24 hrs by MTT assay relative to control; type: cell-based; details: read-out: Activity
[8] = target: T1, Amine oxidase [flavin-containing] A; experiment: Suicide inhibition of recombinant human MAO-A assessed as reduction in H2O2 production preincubated for 30 mins followed by p-tyramine substrate addition measured after 30 mins by Lineweaver-Burk plot analysis; details: 0.5 h
[9] = target: T1, Amine oxidase [flavin-containing] A; experiment: Irreversible inhibition of recombinant human MAO-A at 5 time Ki value preincubated for 15 mins followed by dilution of enzyme-inhibitor mixture for 24 hrs and subsequent p-tyramine substrate addition by dialysis method

Row | Compound | Ki [1] [µM] | inhibition (INH) [2] | inhibition (INH) [3] | Papp at 16 h, 50 ug/ml (in vitro) [×10⁻⁶ cm/s] | Ki [4] [µM] | Ratio Ki (Homo sapiens) | viability at 24 h, 1 µM [5] [%] | viability at 24 h, 5 µM [6] [%] | viability at 24 h, 25 µM [7] [%] | inhibition (INH) [8] | inhibition (INH) [9]
1 | NCCNC(=O)c1ccc(Cl)cn1 [LAZABEMIDE] | 7900 | Active | Active | – | – | – | – | – | – | – | –
2 | C[C@]12CC[C@@H]3c4ccc(O)cc4CC[C@H]3[C@@H]1CC[C@@H]2O [ESTRADIOL] | – | – | – | 11.8 | – | – | – | – | – | – | –
3 | CCn1cc(C(=O)O)c(=O)c2cc(F)c(N3CCNC(C)C3)c(F)c21 (configuration not stated) [LOMEFLOXACIN] | – | – | – | 1.24 | – | – | – | – | – | – | –
4 | COc1cc(C2=NN(C(=S)Nc3ccccc3)C(c3ccc(Cl)cc3)C2)ccc1O (configuration not stated) | 19.6 | Active | Active | 9.55 | 4770 | 244 | 95 | 88.2 | 80.3 | – | –
5 | C#CCN(C)[C@H](C)Cc1ccccc1 [SELEGILINE] | – | – | – | – | – | – | – | – | – | Active | Active
6 | O=C(NCCN1CCOCC1)c1ccc(Cl)cc1 [MOCLOBEMIDE] | – | Active | Active | – | – | – | – | – | – | – | –
7 | COc1cc(C2=NN(S(=O)(=O)c3ccc(C)cc3)C(c3ccc(Cl)cc3)C2)ccc1O (configuration not stated) | 40 | Active | Active | 12 | 6000 | 150 | 91.2 | 79.5 | 64.1 | – | –
8 | COc1cc(C2=NN(C(=O)c3ccccc3)C(c3ccc(Cl)cc3)C2)ccc1O (configuration not stated) | 26.2 | Active | Active | – | 6000 | 229 | 90 | 86.3 | 78.2 | – | –
9 | COc1cc(C2=NNC(c3ccc(Cl)cc3)C2)ccc1O (configuration not stated) | 0.08 | Active | Active | 13.9 | 140 | 1750 | 99 | 94.5 | 90.2 | – | –
10 | COc1cc(C2=NN(C(=O)Oc3ccccc3)C(c3ccc(Cl)cc3)C2)ccc1O (configuration not stated) | 193 | Active | Active | – | 5770 | 29.9 | 93.1 | 81.7 | 77 | – | –
